{
  "source": "paper PMC9459109",
  "about": "“A higher spectral range of beetle bioluminescence with infraluciferin” (Frontiers in Bioengineering and Biotechnology, 2022)",
  "conditions_in_all_cases": "saturating DL-infraluciferin (DL-iLH2) as co-substrate",
  "key": {"[1]": {"biological_target": "WT Fluc (Photinus pyralis firefly luciferase, Ppy Fluc) (Photinus pyralis, UniProt P08659, E354R/D357Y)", "sequence (P08659 whole entry E354R/D357Y)": "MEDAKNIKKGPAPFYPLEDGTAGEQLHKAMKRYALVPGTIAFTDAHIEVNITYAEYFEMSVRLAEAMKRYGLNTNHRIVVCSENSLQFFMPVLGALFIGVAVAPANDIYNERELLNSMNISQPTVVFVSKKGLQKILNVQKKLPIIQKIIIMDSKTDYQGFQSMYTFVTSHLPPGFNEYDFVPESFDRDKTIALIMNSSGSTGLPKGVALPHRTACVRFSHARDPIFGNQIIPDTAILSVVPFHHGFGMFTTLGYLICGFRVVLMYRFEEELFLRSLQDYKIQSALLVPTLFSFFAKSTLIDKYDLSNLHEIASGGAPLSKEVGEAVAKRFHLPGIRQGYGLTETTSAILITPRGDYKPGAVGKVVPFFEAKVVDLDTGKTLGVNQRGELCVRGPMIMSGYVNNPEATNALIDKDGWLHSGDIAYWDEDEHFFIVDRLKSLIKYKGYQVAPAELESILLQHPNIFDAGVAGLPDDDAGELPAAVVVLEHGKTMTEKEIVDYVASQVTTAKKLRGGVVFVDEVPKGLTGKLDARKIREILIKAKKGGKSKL"}, "Eluc": {"system": "T1, Eluc", "T1 construct": "10X N-terminal His tag, pET16b, E. coli BL21(DE3) pLysS, Ni-NTA purified; amplified from plasmid pLR6-Eluc", "experiment": "bioluminescence, ATP […] to […], Hanes-Woolf plot", "assay_type": "biochemical, Pyrearinus termitilluminans"}, "[2]": {"biological_target": "WT Fluc (Photinus pyralis firefly luciferase, Ppy Fluc) (Photinus pyralis, UniProt P08659)", "sequence (P08659 whole entry)": "as the sequence (P08659 whole entry E354R/D357Y) above, with R354E, Y357D counted along it"}},
  "data": [
    {"smiles": "Nc1ncnc2c1ncn2[C@@H]1O[C@H](COP(=O)(O)OP(=O)(O)OP(=O)(O)O)[C@@H](O)[C@H]1O", "note": "[ATP]", "values": [
      {"measurement": "Km", "setting": "[1]", "value": "Kms for ATP in the presence of DL-iLH2 (ATP(iLH2))"},
      {"measurement": "Km", "setting": "Eluc", "value": 200, "unit": "µM"},
      {"measurement": "Km", "setting": "[2]", "value": 160, "unit": "µM"}
    ]}
  ]
}
